Tests used:
[1] = tested on: normal NK cells expanded with K562-aAPC; assay: percent inhibition of viability; higher = more inhibition; settings: 72 h, IL-2 2.5 ng/mL
Description: (§1)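 Drug sensitivity and resistance testing on K562-aAPC-expanded normal NK cells: 5 concentrations (10-fold steps over a 10,000-fold range), 72 h at 37 °C, viability by CellTiter-Glo normalised to DMSO and benzethonium chloride controls; DSS from the fitted curve.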

[2] = tested on: DERL-7 (IL-2 2.5 ng/mL); assay: as above; settings: 72 h
[3] = tested on: IMC-1 (IL-2 20 ng/mL); assay: as above; settings: 72 h
[4] = tested on: KAI3 (IL-2 2.5 ng/mL); assay: as above; settings: 72 h
[5] = tested on: KHYG-1 (IL-2 2.5 ng/mL); assay: as above; settings: 72 h
[6] = tested on: NK-92 (IL-2 2.5 ng/mL); assay: as above; settings: 72 h
[7] = tested on: NK-YS (IL-2 2.5 ng/mL); assay: as above; settings: 72 h
[8] = tested on: NKL (IL-2 2.5 ng/mL); assay: as above; settings: 72 h
[9] = tested on: SNK-6 (IL-2 2.5 ng/mL); assay: as above; settings: 72 h
[10] = tested on: YT (IL-2 2.5 ng/mL); assay: as above; settings: 72 h
[11] = tested on: normal primary NK cells, pool 1 (3 donors) (IL-2 2.5 ng/mL); assay: as above; settings: 72 h
[12] = tested on: normal primary NK cells, pool 1 (3 donors), resting (IL-2 0 ng/mL); assay: as above; settings: 72 h
[13] = tested on: normal primary NK cells, pool 2 (3 donors) (IL-2 2.5 ng/mL); assay: as above; settings: 72 h
[14] = tested on: normal primary NK cells, pool 3 (3 donors) (IL-2 2.5 ng/mL); assay: as above; settings: 72 h
[15] = tested on: normal NK cells expanded with K562-aAPC; assay: drug sensitivity score (DSS) (DSS units); higher = more sensitive; extreme values may be limits of the assay; settings: 72 h; IL-2 2.5 ng/mL
Description: as §1

[16] = tested on: DERL-7 (IL-2 2.5 ng/mL); assay: as above; settings: 72 h
[17] = tested on: IMC-1 (IL-2 20 ng/mL); assay: as above; settings: 72 h
[18] = tested on: KAI3 (IL-2 2.5 ng/mL); assay: as above; settings: 72 h
[19] = tested on: KHYG-1 (IL-2 2.5 ng/mL); assay: as above; settings: 72 h
[20] = tested on: NK-92 (IL-2 2.5 ng/mL); assay: as above; settings: 72 h
[21] = tested on: NK-YS (IL-2 2.5 ng/mL); assay: as above; settings: 72 h
[22] = tested on: NKL (IL-2 2.5 ng/mL); assay: as above; settings: 72 h
[23] = tested on: SNK-6 (IL-2 2.5 ng/mL); assay: as above; settings: 72 h
[24] = tested on: YT (IL-2 2.5 ng/mL); assay: as above; settings: 72 h
[25] = tested on: normal primary NK cells, pool 1 (3 donors) (IL-2 2.5 ng/mL); assay: as above; settings: 72 h
[26] = tested on: normal primary NK cells, pool 1 (3 donors), resting (IL-2 0 ng/mL); assay: as above; settings: 72 h
[27] = tested on: normal primary NK cells, pool 2 (3 donors) (IL-2 2.5 ng/mL); assay: as above; settings: 72 h
[28] = tested on: normal primary NK cells, pool 3 (3 donors) (IL-2 2.5 ng/mL); assay: as above; settings: 72 h

CN(C)CCN1C(=O)c2cccc3cc(N)cc(c23)C1=O [Amonafide] (max concentration tested 10000 nM)
percent inhibition of viability [%]
Settings | 1 nM | 10 nM | 100 nM | 1000 nM | 10000 nM
[1] | 3.02 | 8.13 | 5.46 | 27.6 | 101
[2] | -0.77 | 2.31 | -12.6 | 19.6 | 101
[3] | 1.06 | 3.1 | 5.35 | 15.8 | 100
[4] | 12.7 | 9.96 | 3.38 | 35.1 | 103
[5] | 6.52 | 2.23 | 12.9 | 14.8 | 103
[6] | 17.3 | 3.38 | 20.4 | 29.9 | 103
[7] | 2.33 | 5.61 | 10.8 | 30.8 | 102
[8] | -9.44 | 0.79 | -4.03 | 33.1 | 89.8
[9] | 21.2 | 8.85 | 20.2 | 23.6 | 99.5
[10] | 3.19 | 6.52 | 7.92 | 11.9 | 104
[11] | -3.82 | -10.6 | -8.88 | -6.27 | 97.5
[12] | 6.85 | -15.8 | -2.6 | 9.89 | 89.3
[13] | -8.57 | -3.21 | 0.92 | 6.12 | 95
[14] | 5.44 | -1.16 | 1.98 | 8.95 | 98.1

Settings | drug sensitivity score
[15] | 9.65
[16] | 8.69
[17] | 8.17
[18] | 10.4
[19] | 8.07
[20] | 9.91
[21] | 10
[22] | 9.52
[23] | 8.74
[24] | 7.63
[25] | 4.95
[26] | 6.59
[27] | 6.19
[28] | 6.87

N#CC1(c2ccc(NC(=O)c3cccnc3NCc3ccncc3)cc2)CCCC1 [Apatinib] (max concentration tested 10000 nM)
percent inhibition of viability [%]
Settings | 1 nM | 10 nM | 100 nM | 1000 nM | 10000 nM
[1] | -1.56 | -5.13 | -0.99 | 0.76 | 2.66
[2] | -0.33 | -0.49 | -2.76 | -4.82 | 1.97
[3] | -6.4 | -0.28 | -6.01 | 0.8 | 2.01
[4] | 3.83 | 2.76 | 6.74 | 10.3 | 12.3
[5] | 4.44 | 2.43 | 2.62 | 6.69 | 19
[6] | -3.67 | -7.24 | 2.24 | 10.8 | 52.7
[7] | -1 | 2.11 | 4.05 | 9.52 | 12.6
[8] | -16.2 | -14.6 | -14.8 | -14.5 | -12.3
[9] | 21 | 12.9 | 7.35 | 12.6 | 28.4
[10] | -0.29 | 0.42 | 2.63 | 7.54 | 7.83
[11] | -14.6 | -10.1 | -4.55 | -2.69 | 6.98
[12] | -2.35 | 4.05 | 8.46 | 11.4 | 31.2
[13] | -4.33 | -2.31 | -5.54 | -1.25 | -5.6
[14] | -6.46 | -8.45 | -1.68 | -7.82 | 1.12

Settings | drug sensitivity score
[15] | 0
[16] | 0
[17] | 0
[18] | 0.17
[19] | 0.9
[20] | 4.58
[21] | 0.26
[22] | 0
[23] | 0
[24] | 0
[25] | 0
[26] | 2.45
[27] | 0
[28] | 0

Cc1c(CN2CCN(C(=O)[C@H](C)O)CC2)sc2c(N3CCOCC3)nc(-c3cnc(N)nc3)nc12 [Apitolisib] (max concentration tested 10000 nM)
percent inhibition of viability [%]
Settings | 1 nM | 10 nM | 100 nM | 1000 nM | 10000 nM
[1] | 2.46 | -0.12 | 17.4 | 39.8 | 85.8
[2] | 3.04 | 1.57 | 29.2 | 78.4 | 92.4
[3] | -4.85 | -5.41 | -12.6 | -55.2 | 8.81
[4] | 0.17 | -2.02 | 17.9 | 39.6 | 65.3
[5] | -2.58 | -0.95 | -1.53 | 18 | 76.4
[6] | 16 | 7.33 | 22.5 | 45.1 | 57.8
[7] | -2.41 | 1.63 | 8.5 | 47.2 | 73.8
[8] | -12 | -7.01 | 2.26 | 53.8 | 65.7
[9] | 13.8 | 9.78 | 15.2 | 21.3 | 45.5
[10] | 0.06 | 0.22 | 4.58 | 47.5 | 71
[11] | -11.8 | -13.1 | 4.5 | 40.1 | 75
[12] | -0.63 | -14.4 | -6.11 | 24.3 | 34.8
[13] | -13.9 | -6.6 | 0.47 | 22.1 | 66.1
[14] | -10.7 | -12.9 | -5.47 | 6.17 | 59.6

Settings | drug sensitivity score
[15] | 10
[16] | 18
[17] | 0
[18] | 9.5
[19] | 7.06
[20] | 11.3
[21] | 10.2
[22] | 10.3
[23] | 6.63
[24] | 9.84
[25] | 8.91
[26] | 4.44
[27] | 6.81
[28] | 4.24

Source: the supplement of paper PMC5908809
